pIC50: −log10 of the molar value.
What was measured:
[1] = molecular target: KRAS (G12D)::SOS1 (Homo sapiens (Human), UniProt P01116, G12D); test: KRAS::SOS1 AlphaScreen binding assay, KRAS G12D
Procedure, shortened: (§1)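 AlphaScreen measurement of compound disruption of biotinylated, GDP-loaded KRAS 1-169 (10 nM; G12C 7.5 nM) binding to GST-SOS1 564-1049 (5 nM with G12D/G12C, 10 nM otherwise), with 10 μM GDP in PBS/0.1% BSA/0.05% Tween 20. Timing was 30 min compound preincubation, then 60 min with beads at room temperature; top concentration 100 μM, 4-parameter IC50.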

[2] = tested on: KRAS G12D-dependent Ba/F3 cells; test: Ba/F3 proliferation assay, KRAS G12D; type: cell-based; conditions: Mus musculus, BaF3, 72 h, AlamarBlue
Procedure, shortened: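 Ba/F3 cells were retrovirally transduced with KRAS G12 mutant vectors, puromycin-selected (1 μg/mL) and grown without IL-3 to make them KRAS-dependent. Compounds were tested in technical duplicates, viability was read by AlamarBlue fluorescence, and values came from curve fitting.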

[3] = tested on: SK-CO-1 cells; test: SK-CO-1 CTG proliferation assay (120 h) (CRC, G12V); type: cell-based; conditions: Homo sapiens; SK-CO-1 cells (CRC, G12V), CTG 120 h
Procedure, shortened: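 SK-CO-1 colorectal cells (KRAS G12V), 500 per well in EMEM + 10% FCS, dosed with compound the day after seeding and grown 120 h at 37 °C. Viability by CellTiter-Glo luminescence as percent of DMSO control; IC50 from four-parameter non-linear regression.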

[4] = molecular target: KRAS (G12C)::SOS1 (Homo sapiens (Human), UniProt P01116, C118S/C51S/C80L/G12C); test: KRAS::SOS1 AlphaScreen binding assay, KRAS G12C
Procedure, shortened: as §1

KRAS (G12C)::SOS1, sequence (P01116 other isoform, or with tags, fused parts or gaps G12C/C51S/C80L/C118S): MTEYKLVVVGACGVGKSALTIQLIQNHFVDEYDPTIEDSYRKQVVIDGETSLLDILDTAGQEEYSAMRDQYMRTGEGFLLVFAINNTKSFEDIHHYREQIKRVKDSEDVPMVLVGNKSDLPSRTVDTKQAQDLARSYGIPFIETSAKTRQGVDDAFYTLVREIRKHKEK
KRAS (G12D)::SOS1, sequence (P01116 other isoform, or with tags, fused parts or gaps G12D): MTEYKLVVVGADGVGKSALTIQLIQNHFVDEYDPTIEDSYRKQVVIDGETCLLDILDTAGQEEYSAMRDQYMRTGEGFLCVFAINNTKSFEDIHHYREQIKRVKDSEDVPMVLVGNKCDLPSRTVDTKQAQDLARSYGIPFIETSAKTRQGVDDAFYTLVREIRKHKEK

Row | SMILES | pIC50 [1] | pIC50 [2] | pIC50 [3] | pIC50 [4]
1 | C[C@H](Oc1nc(-c2noc3c2CCC[C@@]32CCCc3sc(N)c(C#N)c32)nc(N2CCNC3(CC3)C2)c1F)[C@@H]1C[C@@H](F)CN1C [II-155] | 9.00 | 8.22 | 6.58 | 8.70
2 | C[C@H](Oc1nc(-c2noc3c2CCC[C@@]32CCCc3sc(N)c(C#N)c32)nc(N2CCNC3(CC3)C2)c1Cl)[C@@H]1C[C@@H](F)CN1C [II-156] | 9.00 | 7.80 | 6.41 | 8.70
3 | C[C@H](Oc1nc(-c2noc3c2CCC[C@@]32CCCc3sc(N)c(C#N)c32)nc(N2C[C@H](C)NC3(CC3)C2)c1F)[C@@H]1C[C@@H](F)CN1C [II-157] | 9.00 | 7.77 | 6.47 | 8.70
4 | C[C@@H]1CN(c2nc(-c3noc4c3CCC[C@@]43CCCc4sc(N)c(C#N)c43)nc(O[C@@H](C)[C@@H]3C[C@@H](F)CN3C)c2F)CC2(CC2)N1 [II-158] | 8.70 | 7.62 | 6.43 | 8.70
5 | COc1c(O[C@@H](C)[C@@H]2CCCN2C)nc(-c2noc3c2CCC[C@@]32CCCc3sc(N)c(C#N)c32)nc1-n1ccc(C(N)=O)n1 [II-159] | 8.22 | 6.44 | 6.88 | 8.70
6 | C[C@H](Oc1cc(N2CC3COCC(C2)N3)nc(-c2noc3c2CCC[C@@]32CCCc3sc(N)c(C#N)c32)n1)[C@@H]1CCCN1C [II-160] | 8.70 | 6.37 | 5.16 | 8.15
7 | C[C@@H]1CN(c2cc(O[C@@H](C)[C@@H]3CCCN3C)nc(-c3noc4c3CCC[C@@]43CCCc4sc(N)c(C#N)c43)n2)CCN1 [II-161] | 8.70 | 6.60 | 5.99 | 8.30
8 | C[C@H](Oc1cc(N2CCN[C@@H](C)C2)nc(-c2noc3c2CCC[C@@]32CCCc3sc(N)c(C#N)c32)n1)[C@@H]1CCCN1C [II-162] | 9.00 | 7.39 | 6.01 | 8.52
9 | C[C@H](Oc1cc([C@H]2CCNC2)nc(-c2noc3c2CCC[C@@]32CCCc3sc(N)c(C#N)c32)n1)[C@@H]1CCCN1C [II-163] | 9.00 | 7.01 | 6.19 | 8.70
10 | C[C@H](Oc1cc(C2=CCNCC2)nc(-c2noc3c2CCC[C@@]32CCCc3sc(N)c(C#N)c32)n1)[C@@H]1CCCN1C [II-164] | 9.00 | 7.18 | 6.54 | 8.70
11 | C[C@H](Oc1cc(N2CCNC3(CC3)C2)nc(-c2noc3c2CCC[C@@]32CCCc3sc(N)c(C#N)c32)n1)[C@@H]1C[C@@H](F)CN1C [II-165] | 9.00 | 8.52 | 6.28 | 8.52
12 | CC(C)[C@@H]1CN(c2cc(O[C@@H](C)[C@@H]3CCCN3C)nc(-c3noc4c3CCC[C@@]43CCCc4sc(N)c(C#N)c43)n2)CCN1 [II-166] | 9.00 | 6.81 | 6.26 | 8.10
13 | C[C@H](Oc1cc(N2C[C@@H]3[C@@H](N)[C@@H]3C2)nc(-c2noc3c2CCC[C@@]32CCCc3sc(N)c(C#N)c32)n1)[C@@H]1CCCN1C [II-167] | 8.70 | 6.21 | 5.87 | 8.30
14 | C[C@H](Oc1cc(-n2cc3c(n2)CNC3)nc(-c2noc3c2CCC[C@@]32CCCc3sc(N)c(C#N)c32)n1)[C@@H]1CCCN1C [II-168] | 9.00 | 7.57 | 6.81 | 8.70
15 | CC(C)N1CCCN(c2cc(-n3ccnc3)nc(-c3noc4c3CCC[C@@]43CCCc4sc(N)c(C#N)c43)n2)[C@@H](C)C1 [II-169] | 8.05 | 6.55 | 6.50 | 8.52
16 | CC(C)N1CCCN(c2cc(-c3ccn(C)n3)nc(-c3noc4c3CCC[C@@]43CCCc4sc(N)c(C#N)c43)n2)[C@@H](C)C1 [II-170] | 8.05 | 7.05 | 6.92 | 8.52
17 | C[C@H](Oc1cc(N2CCN(C)C3(CC3)C2)nc(-c2noc3c2CCC[C@@]32CCCc3sc(N)c(C#N)c32)n1)[C@@H]1CCCN1C [II-171] | 9.00 | 8.00 | 5.81 | 8.30
18 | C[C@H](Oc1cc(N2C[C@H](C)N(C)[C@@H](C)C2)nc(-c2noc3c2CCC[C@@]32CCCc3sc(N)c(C#N)c32)n1)[C@@H]1CCCN1C [II-173] | 9.00 | 7.29 | 6.09 | 8.30
19 | C[C@H](Oc1cc(-n2cc3c(n2)CN(C)C3)nc(-c2noc3c2CCC[C@@]32CCCc3sc(N)c(C#N)c32)n1)[C@@H]1CCCN1C [II-174] | 9.00 | 7.80 | 6.41 | 8.70
20 | C[C@H](Oc1nc(-c2noc3c2CCC[C@@]32CCCc3sc(N)c(C#N)c32)nc(N2CCN(C)C3(CC3)C2)c1Cl)[C@@H]1C[C@@H](F)CN1C [II-176] | 8.70 | 6.95 | 5.69 | 7.82
21 | CC(=O)N1CCN(c2cc(O[C@@H](C)[C@@H]3CCCN3C)nc(-c3noc4c3CCC[C@@]43CCCc4sc(N)c(C#N)c43)n2)CC12CC2 [II-178] | 8.70 | 7.07 | 6.83 | 8.70
22 | CC(C)NC(=O)Cc1ccn(-c2cc(O[C@@H](C)[C@@H]3CCCN3C)nc(-c3noc4c3CCC[C@@]43CCCc4sc(N)c(C#N)c43)n2)n1 [II-182] | 9.00 | 7.80 | 8.05 | 9.00
23 | CO[C@H]1CCN(C)[C@@H]1[C@H](C)Oc1cc(-n2ccc(CC(=O)NC(C)C)n2)nc(-c2noc3c2CCC[C@@]32CCCc3sc(N)c(C#N)c32)n1 [II-183] | 9.00 | 7.92 | 8.15 | 8.70
24 | CO[C@H]1CCN(C)[C@@H]1[C@H](C)Oc1cc(N2CCNC3(CC3)C2)nc(-c2noc3c2CCC[C@@]32CCCc3sc(N)c(C#N)c32)n1 [II-184] | 9.00 | 9.00 | 6.60 | 8.70
25 | CCN1CCN(c2cc(O[C@@H](C)[C@@H]3C[C@@H](F)CN3C)nc(-c3noc4c3CCC[C@@]43CCCc4sc(N)c(C#N)c43)n2)CC12CC2 [II-185] | 9.00 | 7.33 | 5.89 | 7.68
26 | CO[C@H]1CCN(C)[C@@H]1[C@H](C)Oc1cc(N2CCN(C)C3(CC3)C2)nc(-c2noc3c2CCC[C@@]32CCCc3sc(N)c(C#N)c32)n1 [II-186] | 9.00 | 7.92 | 6.06 | 8.52
27 | CO[C@@H]1C[C@@H]([C@H](C)Oc2cc(N3CCNC4(CC4)C3)nc(-c3noc4c3CCC[C@@]43CCCc4sc(N)c(C#N)c43)n2)N(C)C1 [II-187] | 9.00 | 8.52 | 6.34 | 8.70
28 | C[C@H](Oc1cc(-n2ccc(C3(O)COC3)n2)nc(-c2noc3c2CCC[C@@]32CCCc3sc(N)c(C#N)c32)n1)[C@@H]1CCCN1C [II-189] | 8.70 | 7.55 | 7.35 | 8.70
29 | C[C@H](NC(=O)c1ccn(-c2cc(O[C@@H](C)[C@@H]3CCCN3C)nc(-c3noc4c3CCC[C@@]43CCCc4sc(N)c(C#N)c43)n2)n1)c1ccccn1 [II-191] | 9.00 | 7.96 | 8.52 | 8.70

— US20240174690A1, “ANNULATED 2-AMINO-3-CYANO THIOPHENES AND DERIVATIVES FOR THE TREATMENT OF CANCER” (BOEHRINGER INGELHEIM INTERNATIONAL GMBH, priority 2021, published 2024)
